Source: US8759334B2, “Compounds useful for the treatment of metabolic and inflammatory diseases” (Galapagos NV, priority 2011, dated 2014)

Key:
GPR43 [1] = target: T1, GPR43 (Homo sapiens, UniProt O15552); assay: Calcium mobilization assay without probenecid; type: cell-based; conditions: GPR43 stably expressing cells, triggered with sodium acetate at EC80, read-out: GPR43 assay without probenicid IC50
T1 construct: expressed in transfected cells
T1 sequence (O15552 1-330): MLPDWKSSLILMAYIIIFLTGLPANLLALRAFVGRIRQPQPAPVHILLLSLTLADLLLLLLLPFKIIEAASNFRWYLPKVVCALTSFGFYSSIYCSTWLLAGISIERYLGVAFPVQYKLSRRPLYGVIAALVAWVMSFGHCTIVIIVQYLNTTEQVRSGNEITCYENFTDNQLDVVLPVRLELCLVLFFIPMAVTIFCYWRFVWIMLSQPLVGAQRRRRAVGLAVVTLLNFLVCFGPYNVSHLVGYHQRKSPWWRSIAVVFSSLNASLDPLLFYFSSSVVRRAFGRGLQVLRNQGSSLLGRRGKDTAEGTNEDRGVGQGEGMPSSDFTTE
Method: The following assay can be used for determination of GPR43 activation. The assay measures intracellular calcium release induced by activation of GPR43. On day 1, GPR43 stably expressing cells were detached with mild trypsinization (Trypsin, 0.25% with EDTA 4Na, 5× diluted in PBS) centrifuged at 1000 rpm for 5 min and resuspended at 6.000 cells/25 μL medium (DMEM supplemented with 10% FBS, 10 μg/mL puromycin and 1% Pen/Strep). The cells were distributed in poly-D-lysine coated 384 well plates (black with clear bottom, 25 μL/well) and incubated overnight at 37° C. 10% CO2. On day 2, 25 μL of a fluorescent Ca^2+ indicator (Calcium 4 assay; Molecular Devices) was added on top of the cells and incubated for 2 h at 37° C. Subsequently, compounds at increasing concentration (10 μL/well) were added to the plate and incubated for 15 min at 37° C. Finally the cells were triggered with sodium acetate at EC80 concentration (concentration which gives 80% of the activity of the GPR43) and the Ca-flux was measured simultaneously to the trigger injection on a fluorescence plate reader (FlexStation3), this measures the antagonist activity of the compounds. To measure agonist activity of the compounds, compound was added to the well and the Ca-flux was measured simultaneously to the injection of compound.

GPR43 [2] = target: T1, GPR43; assay: Calcium mobilization assay with probenecid; type: cell-based; conditions: GPR43 stably expressing cells; triggered with sodium acetate at EC80; 2.5 mM probenecid; read-out: GPR43 assay with probenicid IC50
Outline: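 Cells stably expressing GPR43 plated overnight at 37 °C, then loaded 2 h with Calcium 4 dye plus 2.5 mM probenecid. […]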

IC50 (GPR43 [1]) [nM]	IC50 (GPR43 [2]) [nM]	SMILES
501 to 1000	–	CN(Cc1ccc(Cl)cc1)C(=O)C1(C)CCN1C(=O)Cc1cccc(I)c1 (stereo not shown) [Compound 8, 1-[2-(3-iodo-phenyl)-acetyl]-2-methyl-azetidine-2-carboxylic acid (4-chloro-benzyl)-methyl-amide]
101 to 500	–	CN(Cc1ccc(Cl)cc1)C(=O)C1(C)CCN1C(=O)Cc1csc2ccccc12 (stereo not shown) [Compound 13, 1-(2-Benzo[b]thiophen-3-yl-acetyl)-2-methyl-azetidine-2-carboxylic acid (4-chloro-benzyl)-methyl-amide]
501 to 1000	–	CN(Cc1ccc(Cl)cc1)C(=O)C1(C)CCN1C(=O)Cc1ccc2ccccc2c1 (stereo not shown) [Compound 14, 2-Methyl-1-(2-naphthalen-2-yl-acetyl)-azetidine-2-carboxylic acid (4-chloro-benzyl)-methyl-amide]
> 1000	–	CN(Cc1ccc(Cl)cc1)C(=O)C1(C)CCN1C(=O)Cc1csc2ccc(Cl)cc12 (stereo not shown) [Compound 92, 1-[2-(5-Chloro-benzo[b]thiophen-3-yl)-acetyl]-2-methyl-azetidine-2-carboxylic acid (4-chloro-benzyl)-methyl-amide]
101 to 500	–	CC1(C(=O)N(CCCO)Cc2ccc(Cl)cc2)CCN1C(=O)Cc1csc2ccccc12 (stereo not shown) [Compound 70, 1-(2-Benzo[b]thiophen-3-yl-acetyl)-2-methyl-azetidine-2-carboxylic acid (4-chloro-benzyl)-(3-hydroxy-propyl)-amide]
101 to 500	–	CC1(C(=O)NCc2ccc(Cl)cc2)CCN1C(=O)Cc1ccc(Cl)cc1Cl (stereo not shown) [Compound 1, 1-[2-(2,4-Dichloro-phenyl)-acetyl]-2-methyl-azetidine-2-carboxylic acid 4-chloro-benzylamide]
> 1000	–	Cc1ccc2scc(CC(=O)N3CCC3(C)C(=O)N(C)Cc3ccc(Cl)cc3)c2c1 (stereo not shown) [Compound 93, 1-[2-(5-Methyl-benzo[b]thiophen-3-yl)-acetyl]-2-methyl-azetidine-2-carboxylic acid (4-chloro-benzyl)-methyl-amide]
> 1000	–	Cc1cc(C)cc(CC(=O)N2CCC2(C)C(=O)N(C)Cc2ccc(Cl)cc2)c1 (stereo not shown) [Compound 3, 1-[2-(3,5-Dimethyl-phenyl)-acetyl]-2-methyl-azetidine-2-carboxylic acid (4-chloro-benzyl)-methyl-amide]
–	> 1000	CC1(C(=O)N(CCCC(=O)O)c2ccc(Cl)nc2)CCN1C(=O)c1csc2ccccc12 (stereo not shown) [Compound 249, 4-(1-(benzo[b]thiophene-3-carbonyl)-N-(6-chloropyridin-3-yl)-2-methylazetidine-2-carboxamido)butanoic acid]
–	101 to 500	COc1cccc(OC(=O)N2CCC2(C)C(=O)N(CCCC(=O)O)Cc2ccc(Cl)cc2)c1 (stereo not shown) [Compound 218, 4-(N-(4-chlorobenzyl)-1-((3-methoxyphenoxy)carbonyl)-2-methylazetidine-2-carboxamido)butanoic acid]
–	101 to 500	CC1(C(=O)N(CCCC#N)Cc2ccc(Cl)cc2)CCN1C(=O)Cc1csc2ccccc12 (stereo not shown) [Compound 99, 1-(2-Benzo[b]thiophen-3-yl-acetyl)-2-methyl-azetidine-2-carboxylic acid (4-chloro-benzyl)-(3-cyano-propyl)-amide]
–	> 1000	CC1(C(=O)N(CCCC(=O)O)Cc2ccc(Cl)cc2)CCN1C(=O)Oc1ccccc1Cl (stereo not shown) [Compound 202, 2-[(3-Carboxy-propyl)-(4-chloro-benzyl)-carbamoyl]-2-methyl-azetidine-1-carboxylic acid 2-chloro-phenyl ester]
–	> 1000	CN(Cc1ccc(Cl)cc1)C(=O)C1(C)CCN1C(=O)Cc1cc(F)cc(F)c1 (stereo not shown) [Compound 19, 1-[2-(3,5-Difluoro-phenyl)-acetyl]-2-methyl-azetidine-2-carboxylic acid (4-chloro-benzyl)-methyl-amide]
–	> 1000	CC1(C(=O)N(CCCC(=O)O)Cc2ccc(Cl)cc2)CCN1C(=O)Oc1ccc(F)cc1Cl (stereo not shown) [Compound 239, 4-(1-((2-chloro-4-fluorophenoxy)carbonyl)-N-(4-chlorobenzyl)-2-methylazetidine-2-carboxamido)butanoic acid]
–	> 1000	Cc1cc(C)cc(CC(=O)N2CCC2(C)C(=O)N(CCCC(=O)N(C)C)Cc2ccc(Cl)cc2)c1 (stereo not shown) [Compound 125, 1-[2-(3,5-Dimethyl-phenyl)-acetyl]-2-methyl-azetidine-2-carboxylic acid (4-chloro-benzyl)-(3-dimethylcarbamoyl-propyl)-amide]
–	> 1000	CC[C@]1(C(=O)N(CCCS(N)(=O)=O)[C@@H](C)c2ccc(Cl)cc2)CCN1C(=O)c1csc2ccccc12 [Compound 244, (R)-1-(benzo[b]thiophene-3-carbonyl)-N-((S)-1-(4-chlorophenyl)ethyl)-2-ethyl-N-(3-sulfamoylpropyl)azetidine-2-carboxamide]
–	> 1000	Cc1cc(C)cc(CC(=O)N2CCC2(C)C(=O)N(CCc2noc(O)n2)Cc2ccc(Cl)cc2)c1 (stereo not shown) [Compound 107, 1-[2-(3,5-Dimethyl-phenyl)-acetyl]-2-methyl-azetidine-2-carboxylic acid (4-chloro-benzyl)-[2-(5-hydroxy-[1,2,4]oxadiazol-3-yl)-ethyl]-amide]
–	> 1000	Cc1cc(C)cc(NC(=O)N2CCC2(C)C(=O)N(CCCC(=O)O)Cc2ccc(Cl)cc2)c1 (stereo not shown) [Compound 200, 4-{(4-chloro-benzyl)-[1-(3,5-dimethyl-phenylcarbamoyl)-2-methyl-azetidine-2-carbonyl]-amino}-butyric acid]
–	0.01 to 100	Cc1cc(C)cc(CC(=O)N2CCC2(C)C(=O)N(Cc2ccc(Cl)cc2)Cc2cc(O)[nH]n2)c1 (stereo not shown) [Compound 133, 1-[2-(3,5-Dimethyl-phenyl)-acetyl]-2-methyl-azetidine-2-carboxylic acid (4-chloro-benzyl)-(5-hydroxy-1H-pyrazol-3-ylmethyl)-amide]
–	> 1000	Cc1cc(C)cc(CC(=O)N2CCC2(C)C(=O)N(CCCN2CCCC2=O)Cc2ccc(Cl)cc2)c1 (stereo not shown) [Compound 149, 1-[2-(3,5-Dimethyl-phenyl)-acetyl]-2-methyl-azetidine-2-carboxylic acid (4-chloro-benzyl)-[3-(2-oxo-pyrrolidin-1-yl)-propyl]-amide]
–	> 1000	O=C(O)CCCN(Cc1cccc(Cl)c1)C(=O)C1(Cc2cccc(C(F)(F)F)c2)CCN1C(=O)c1csc2ccccc12 (stereo not shown) [Compound 222, 4-(1-(benzo[b]thiophene-3-carbonyl)-N-(3-chlorobenzyl)-2-(3-(trifluoromethyl)benzyl)azetidine-2-carboxamido)butanoic acid]
–	501 to 1000	Cc1cc(C)cc(CC(=O)N2CCC2(C)C(=O)N(CCCS(=O)(=O)N2CCN(C)CC2)Cc2ccc(Cl)cc2)c1 (stereo not shown) [Compound 180, 1-[2-(3,5-Dimethyl-phenyl)-acetyl]-2-methyl-azetidine-2-carboxylic acid (4-chloro-benzyl)-[3-(4-methyl-piperazine-1-sulfonyl)-propyl]-amide]
–	501 to 1000	CC1(C(=O)N(CCCC(=O)O)c2cc(Cl)ccn2)CCN1C(=O)c1csc2ccccc12 (stereo not shown) [Compound 252, 4-(1-(benzo[b]thiophene-3-carbonyl)-N-(4-chloropyridin-2-yl)-2-methylazetidine-2-carboxamido)butanoic acid]
–	0.01 to 100	CCC1(C(=O)N(CCCS(N)(=O)=O)Cc2cccc(Cl)c2)CCN1C(=O)c1csc2ccccc12 (stereo not shown) [Compound 208, 1-(benzo[b]thiophene-3-carbonyl)-N-(3-chlorobenzyl)-2-ethyl-N-(3-sulfamoylpropyl)azetidine-2-carboxamide]
–	101 to 500	CC1(C(=O)N(CCCC(=O)NS(C)(=O)=O)Cc2ccc(Cl)cc2)CCN1C(=O)c1csc2ccccc12 (stereo not shown) [Compound 240, 1-(benzo[b]thiophene-3-carbonyl)-N-(4-chlorobenzyl)-2-methyl-N-(4-(methylsulfonamido)-4-oxobutyl)azetidine-2-carboxamide]
–	101 to 500	Cc1cc(C)cc(CC(=O)N2CCC2(C)C(=O)N(CC(=O)NC2CC2)Cc2ccc(Cl)cc2)c1 (stereo not shown) [Compound 81, 1-[2-(3,5-Dimethyl-phenyl)-acetyl]-2-methyl-azetidine-2-carboxylic acid (4-chloro-benzyl)-cyclopropylcarbamoylmethyl-amide]
–	501 to 1000	CC1(C(=O)N(CCC(=O)O)Cc2ccc3cn[nH]c3c2)CCN1C(=O)c1csc2ccccc12 (stereo not shown) [Compound 188, 3-[[1-(Benzo[b]thiophene-3-carbonyl)-2-methyl-azetidine-2-carbonyl]-(1H-indazol-6-ylmethyl)-amino]-propionic acid]
–	> 1000	Cc1ccc(OC(=O)N2CCC2(C)C(=O)N(CCCC(=O)O)Cc2ccc(Cl)cc2)c(Cl)c1 (stereo not shown) [Compound 223, 4-(1-((2-chloro-4-methylphenoxy)carbonyl)-N-(4-chlorobenzyl)-2-methylazetidine-2-carboxamido)butanoic acid]
